From patent US8754094B2, “Methods for heat shock protein dependent cancer treatment” (The Research Foundation of State University of New York, priority 2007, dated 2014)
“Also recorded” adds a separate entry of the source. Residues, ends and D or L forms follow the SMILES beside them. *: point of attachment. Cbz = O=C(OCc1ccccc1)*

Columns and labels:
Assay type in all cases: cell-based, human
BiP = assay: Levels of ER lumenal chaperone BiP in NCI-H929; conditions: NCI-H929, data not shown
XBP-1 mRNA splicing = assay: RT-PCR analysis of XBP-1 mRNA splicing (UPR) in NCI-H929; conditions: for XBP-1 mRNA splicing at early time points: NCI-H929, early time points (4 h), concentrations that gave synergistic cytotoxicity
Experimental: Total RNA was prepared from NCI-H929 and HEK293 cells using TRIzol reagent (Invitrogen, Carlsbad, Calif.) following exposure to MAL3-101, MG-132, and 17-AAG alone and in combination at the indicated time points. Tunicamycin was used at varying concentrations.
Total RNAs were used for the first-strand synthesis with the Superscript reverse transcriptase (Invitrogen, Carlsbad, Calif.). PCR primers (5′-[…]-3′ [Seq. ID No. 1] and 5′-[…]-3′ [Seq. ID No. 2]) encompassing the missing sequences in XPB-1s were used for the PCR amplification with AmpliTaq Gold polymerase (Applied Biosystem, Foster City, Calif.) with a probe set spanning the spliced-out region. PCR products were separated by electrophoresis on a 3% agarose gel (Agarose-1000, Invitrogen) and visualized them by ethidium bromide staining to assess the degree of X-box binding protein-1 unspliced (XBP-1u, ˜280 bp) and spliced (XBP-1s, ˜265 bp) mRNA.
Unspliced (XBP-1u, 285 bp) and spliced (XBP-1s, 259 bp) XBP-1 mRNA levels of treated NCI-H929 were determined by PCR amplification of total RNA that was reverse transcribed by SuperScript Reverse Transcriptase (Invitrogen, Carlsbad, Calif.). PCR primers (5′-[…]-3′ [Seq. ID No. 1] and 5′-[…]-3′ [Seq. ID No. 2]), which flank the 26-nt intron of XBP1 mRNA, were used for PCR amplification with Ex Taq polymerase (Takara Bio, Shiga, Japan).

primary MM cells = assay: MTS survival assay, primary bone-marrow MM tumor cells from patients; conditions: FIG. 36C
Experimental: Primary bone-marrow tumor cells and endothelial progenitor cells (EPCs) were obtained from previously untreated MM patients. That is, 10 ml bone marrow aspirates were collected in BD Vacutainers containing heparin (BD, Franklin, N.J.), and red cells may be removed from MM bone marrow samples using a Red Blood Cell Lysis Buffer (Roche Applied Science, Indianapolis, Ind.) to obtain primary tumor cells in marrow samples consisting of greater than 80% CD138-positive tumor cells, determined by flow cytometry as may be desired. Tumor cells were used for experiments the day they were harvested, and were cultured in the MM cell line medium described above.
MAL3-101 (the structure is shown as the final product in FIG. 12, in FIG. 13, and in FIG. 25B), the proteasome inhibitor MG-132 (A.G. Scientific, San Diego, Calif.) and the Hsp90 inhibitor 17-allylamino-17-demethoxygeldanamycin (17-AAG) (Calbiochem/EMD Biosciences, San Diego, Calif.) were dissolved in dimethylsulfoxide (DMSO; Sigma-Aldrich, St. Louis, Mo.), and stored at −20° C. Final concentration of DMSO was 0.03% and this was used to treat control cells. The MM cell lines examined were NCI-H929, RPMI-8226, and U266 (ATCC, Manassas, Va.). Normal peripheral blood mononuclear cells (PBMC) and bone marrow (BM) cells were obtained from StemCell Technologies (Vancouver, Canada). […]

SMILES	levels of BiP (BiP)	XBP-1 mRNA splicing at high concentration (XBP-1 mRNA splicing; NCI-H929, 30 μM, after 24 h of culture)	XBP-1 mRNA splicing at early time points (XBP-1 mRNA splicing)	reduction of viability of MM cells extracted from the BM (primary MM cells) [%]
CCCCCCN(C(=O)CCCCCN1C(=O)NC(c2ccc(-c3ccccc3)cc2)C(C(=O)OCc2ccccc2)=C1C)C(C(=O)NCCCC)c1ccc(OCC(=O)OC)c(C(=O)OC)c1 (stereo not shown) [MAL3-101]	did not change	minimal XBP-1 mRNA splicing occurred	there does not appear to be an effect; also recorded: no XBP-1 mRNA splicing was observed	33±8
CC(C)C[C@@H](C=O)NC(=O)[C@H](CC(C)C)NC(=O)[C@H](CC(C)C)NC(=O)OCc1ccccc1 [MG-132, reference compound] (Cbz-Leu-Leu-Leu-aldehyde)	did not change	–	no XBP-1 mRNA splicing was observed	44±10
